In US6984659B2, “2-pyrrolidinone derivatives substituted at position 4 for reducing the extracellular glutamate level” (priority 1997, dated 2006):
Where “and” joins values, the source holds several entries; their conditions need not be identical. Equal entries are not always repeated.

Tests used:
[1] = tested on: retinal gangliocytes (neurons in the ganglion cell layer); assay type: in vivo
Method: The following results were found:
10 rats were treated with 0.9% NaCl i.p. at the start of a unilateral one-hour intraocular pressure increase. After 6 hours, the treatment was again carried out with 0.9% NaCl i.p. After 14 days, the rats were sacrificed, and the retinal gangliocytes were investigated. Compared with the respective control eye, only 17.4% (±4%) of the retinal gangliocytes had survived.
In the test group, likewise of 10 rats, 50 mg/kg 8-azaspiro[5,4]decan-9-one was administered i.p. at the start of a unilateral one-hour intraocular pressure increase. The compound was administered again in a dose of 50 mg/kg 6 hours after the intraocular pressure increase. After 14 days, the rats were sacrificed, and the retinal gangliocytes were investigated. It emerged that, compared with the respective control eye, 35% (±7%) of the retinal gangliocytes survived.
The method in brief: Retinal ischemia in the left eye was induced by elevating the intraocular pressure above systolic blood pressure for one hour. Retinal ischemia was confirmed by whitening of the fundus. In the first experiment 10 rats received 50 mg/kg GBP intraperitoneally immediately prior to ischemia and 50 mg/kg 6 hours after reperfusion, 10 rats received 50 mg/kg GBP-L i.p. immediately prior to ischemia and 50 mg/kg 6 hours after reperfusion, and 10 rats received vehicle alone. Ischemic damage was histologically quantified 14 days after ischemia: Both eyes were enucleated and immersed in 4% buffered formaldehyde for 24 hours. Retinal wholemounts were made and stained with cresyl violet, (0.1%, pH 4.5 for 30 min). Ischemic damage was quantified by counting the number of neurons in the ganglion cell layer in a masked fashion. […] This control eye was not subjected to ischemia.
Statistically, the ganglion cell numbers were evaluated as follows: In contrast to the usual ANOVA where the ratio of the mean squares between the treatment groups and the error mean square is used in the F-statistic, the nested design applied here requested another approach. Apart from the factor medication, there were three other sources of variation in our example, (1) the rat, (2) the eye, and (3) the replications of cell counting within each eye. To test for the medication effect the mean square for rat within medication has to be used as denominator. The variability of the eye is then contained in both the numerator (with all contributions to the variance) and the denominator (with the contributions to the variance except that of the factor medication). Thus, the variability of the eye is eliminated in the end and the variance of the factor medication is assessed appropriately in the F-test. The used model was: cell counts=med rat (med) eye(med*rat).
In order to evaluate the therapeutic window of GBP-L as an antiischemic drug (Pulsinelli et al. 1997) its time-effect relationship was tested at 75 mg/kg given twice prior to or after the end of ischemia with an interval of 6 hours.
The dose dependence of the neuroprotective effect of GBP-L was established using 25 mg/kg, 50 mg/kg and 75 mg/kg (see FIG. 7) given twice three hours and nine hours after the end of ischemia.

[2] = tested on: neuronal intranuclear inclusions; test: mouse model of Huntington's disease, immunohistochemistry of ubiquitinated neuronal intranuclear inclusions; assay type: in vivo; conditions: for mean hippocampal areas of neuronal intranuclear inclusions / mean neocortical areas of neuronal intranuclear inclusions / mean striatal areas of neuronal intranuclear inclusions: per individual mouse, 100 mg/kg*day, frozen brain sections, 100 mg/kg
Source text: Mice transgenic for exon 1 of the human HD gene (line R 6/2), carrying CAGn=115-156 expansions, develop pronounced neuronal intranuclear inclusions, containing the proteins huntington and ubiquitin prior to the characteristic neurological phenotype with bradykinesia and seizures corresponding to the juvenile type of HD (Davies et al. 1997). The life time of these mice is up to 17 weeks. It was investigated whether gabapentin (GBP) and its derivative gabapentin-lactam (GBP-L, Jehle et al. 2000), may exert neuroprotective effects by using a battery of behavioral tests selected to measure motor aspects of fore-and hindlimb coordination and balance. In a first series of experiments mice were treated with GBP-L (100 mg/kg*day, 8 mice) and vehicle only (B mice) from the 6th week of their life until death using Alzet pumps implanted subcutaneously and delivering the test compounds systemically and continuously for up to four weeks. Empty Alzet pumps were repeatedly replaced. Animals were tested twice weekly by walking on a balance beam (width: 5 and 14 mm, Carter et al. 1999) up to week 15.5. A second series of experiments involved mice again treated with GBP-L (100 mg/kg*clay, 7 mice) and mice treated with GBP (100 mg/kg*day, 8 mice) from the 6th week of their life until death with week 17 being the maximum endpoint. In addition, immunohistochemical studies, using a monoclonal mouse antibody raised against ubiquitin, were done to analyse areas of ubiquitinated nuclear inclusions in three brain regions (hippocampus, neocortex and striatum) in a blinded fashion in order to compare mice treated with GBP-L or GBP.
Three mice per group were evaluated. The mean regional area of neuronal intranuclear inclusions was calculated (μm^2) for each mouse. These means were compared between regions and between treatment groups.

[3] = tested on: potassium-evoked release of [^3H]-noradrenaline; test: potassium-evoked release of [^3H]-noradrenaline from rat neocortex slices (superfusion); assay type: cell-based; conditions: rat neocortical slices
Source text: The effects of GBP and GBP-L were compared by a very similar approach using rat and human neocortical slices.
Note that the deviations indicate confidence intervals (CI95), not standard errors.

Structure (SMILES) | neuroprotective effect / number of surviving neurons (in words) ([1]; 50 mg/kg i.p. immediately prior to ischemia and 6 hours after reperfusion, 14 days, listed as gabapentin) | rate of surviving neurons ([1]; 50 mg/kg i.p. twice, ganglion cell layer neurons, 14 days after ischemia, pure ischemia 17.5%) [%] | mean hippocampal areas of neuronal intranuclear inclusions [2] | mean neocortical areas of neuronal intranuclear inclusions [2] | mean striatal areas of neuronal intranuclear inclusions [2] | K^+-evoked [^3H]-NA release (in words) [3] | retinal gangliocytes survived compared with the respective control eye ([1]; 50 mg/kg i.p. at start of one-hour intraocular pressure increase and again 6 hours after, 14 days, NaCl group 17.4%) [%] | mortality in the 14 days after the test ([1]; 50 mg/kg i.p. twice, 10 rats) | time-effect relationship: neuroprotective action maintained after recirculation ([1]; 75 mg/kg given twice prior to or after the end of ischemia, interval 6 hours, another strain of rats) | slope of regression line of dose-effect relationship ([1]; 25, 50 and 75 mg/kg given twice, three and nine hours after the end of ischemia) | area of neuronal intranuclear inclusions in hippocampus, striatum and neocortex compared to GBP mice (in words) ([2]; three mice per group)
NCC1(CC(=O)O)CCCCC1 [GBP, gabapentin, reference compound] | no protective effect whatever | 17.5 | 8.78 μm^2 and 8.93 μm^2 and 8.26 μm^2 | 5.91 μm^2 and 5.94 μm^2 and 9.60 μm^2 | 6.43 μm^2 and 7.27 μm^2 and 3.84 μm^2 | inhibited similarly |  |  |  |  | 
O=C1CC2(CCCCC2)CN1 [GBP-L, 8-azaspiro[5,4]decan-9-one] |  |  | 4.47 μm^2 and 4.01 μm^2 and 3.61 μm^2 | 3.70 μm^2 and 2.96 μm^2 and 2.65 μm^2 | 3.52 μm^2 and 4.20 μm^2 and 3.83 μm^2 | inhibited similarly | 35 | no animal died | maintained for more than three hours after recirculation | 0.41 | markedly and significantly reduced
